According to PubChem BioAssay AID2305 (GlaxoSmithKline (GSK), 2010):
“And” between values parts separate entries of the source, which are not always exact repeats. Identical values can stand only once.

What follows are molecules tested on P. falciparum 3D7 growth, pLDH absorbance (assay: blood-stage malaria parasite growth potency – strain 3D7, dose response (AID 2305)).

Row | SMILES | IC50
1 | Nc1cccc(CNCc2cccc(-c3ccc(-c4nc5ccccc5[nH]4)s3)c2)c1 | 0.6 µM
2 | CCCCCC(C)C(C)c1cc(O)c2c(c1)OC(C)(C)CC2(O)c1ccccn1 (stereo unspecified) | 0.74 µM
3 | O=C(Nc1ccc(-c2nc3ccccc3[nH]2)cc1)C1CCCN(C2CCC2)C1 (stereo unspecified) | 1.35 µM
4 | CCOC(=O)c1ccc(NC(=O)Nc2cccc(-c3ccc(-c4nc5c(C)cccc5[nH]4)s3)c2)cc1 | 0.14 µM
5 | COc1ccc(CCn2c(=N)c(C(=O)NCc3ccccc3)cc3c(=O)n4ccccc4nc32)cc1 | 0.75 µM
6 | O=C(Nc1cccc(-c2cccc(-c3nc4ccc(C(F)(F)F)cc4[nH]3)c2)c1)c1cnc[nH]1 | 0.21 µM
7 | O=C(NCCCCCN1CCC(c2c[nH]c3ccccc23)CC1)Nc1cccc(I)c1 | 0.99 µM
8 | CC(C)(C)OC(=O)N[C@@H](CS(=O)(=O)CCN=C(N)COCc1ccccc1)C(=O)OC(C)(C)C | 0.82 µM
9 | CNC(=O)c1cnc(Nc2ccc(OCC(O)CN(C)C)cc2)nc1Nc1cccc([N+](=O)[O-])c1 (stereo unspecified) | 0.62 µM
10 | O=C(Nc1cccc(CN2CCCN(Cc3cccc(F)c3)CC2)c1)c1ccc(Cl)c(Cl)c1 | 0.92 µM
11 | Cc1noc(C)c1-c1cccc(CNCc2ccc(-c3ccc(-c4nc5ccc(C(F)(F)F)cc5[nH]4)s3)cc2)c1 | 0.18 µM
12 | O=C(Nc1cccc(CN2CCCN(Cc3ccccc3)CC2)c1)c1ccc(Cl)c(Cl)c1 | 0.9 µM
13 | O=C(NCCCCCN1CCC(c2c[nH]c3ccccc23)C1)Nc1ccc(Cl)c(Cl)c1 (stereo unspecified) | 0.81 µM
14 | COc1cc(C(=O)NCCCN2CCN(c3cccc(Cl)c3)CC2)ccc1-c1nc2cc(Cl)c(F)cc2[nH]1 | 1.02 µM
15 | Clc1ccc(CCNCCCCCCNCCc2ccc3c(c2)OCO3)cc1 | 1.73 µM
16 | COc1ccc(CNCc2ccccc2)cc1-c1cccc(S(=O)(=O)NCCN2CCCC2)c1 | 0.79 µM
17 | O=C(NCCN1CCCCC1)N1CCCN(c2ncnc3cc(-c4ccccc4)sc23)CC1 | 0.23 µM
18 | COc1ccc2ncc(Cl)c(CCN3C[C@H](CNCc4ccc5c(n4)NC(=O)CS5)[C@H](O)C3)c2n1 | 1 µM
19 | NC(N)=NN=CC(=O)Nc1ccc(Cl)c(C(F)(F)F)c1 | 0.89 µM
20 | Cn1cc(-c2ccccc2C(=O)O)c(=O)c2cc(Cl)ccc21 | 0.92 µM
21 | Cc1ccc(-n2cc(CNCCc3ncc(C)[nH]3)c(-c3ccc(F)cc3)n2)cc1 | 1.51 µM
22 | FC(F)(F)c1ccc2nc(-c3ccc(-c4cccc(CNCCc5cccnc5)c4)s3)[nH]c2c1 | 0.17 µM
23 | CC(=O)Nc1nc(N)c2c(ccc3c2ccn3CC(C)C)n1 | 0.07 µM
24 | COc1cc2c(cc1NS(=O)(=O)c1ccc(OCc3ccc(Br)cc3)cc1)CCN(C1CCC1)CC2 | 0.84 µM

Row | SMILES | IC50
25 | COc1cc2c(Nc3ccc(NC(=O)c4ccccc4)cc3)ncnc2cc1OCCCN1CCOCC1 | 0.65 µM
26 | CCN(CC)CCNc1ccnc2[nH]c3ccc(Cl)cc3c12 | 0.24 µM
27 | COc1ccc(CNCc2ccc(-c3ccc(CNCCc4ccccc4)cn3)cc2)cn1 | 1.01 µM
28 | O=C(CC1SC(N2N=C(c3cccs3)CC2c2ccccc2)=NC1=O)Nc1ccccc1F (stereo unspecified) | 1.09 µM
29 | O=C(NCC1CCCCC1)c1cc(=O)c2ccccc2o1 | 0.32 µM
30 | Cc1ccc(NC(=O)NCCCCCN2CCC(c3c[nH]c4ccccc34)CC2)cc1I | 0.81 µM
31 | CCN(CC)CCCn1c(N)c(-c2nc3ccccc3[nH]2)c2nc(C#N)c(C#N)nc21 | 0.27 µM
32 | CC(CNCc1cn(Cc2cc(Br)cc(Br)c2)c2ccccc12)CNc1cc(=O)c2ccccc2[nH]1 (stereo unspecified) | 0.46 µM
33 | Clc1cc(Cl)c2c(c1)C(NCCCNc1nc3ccccc3[nH]1)CCO2 (stereo unspecified) | 0.33 µM
34 | O=C(Nc1ccc(Cl)cc1)c1ccc(CN2CCCN(CC3CCCCC3)CC2)cc1 | 0.22 µM
35 | Cc1[nH]c(C)c(-c2ccc(Oc3cccc(OC(F)(F)F)c3)cc2)c(=O)c1Cl | 0.68 µM
36 | O=C(Nc1ccc2oc(-c3ccc(Cl)cc3Cl)nc2c1)c1ccc([N+](=O)[O-])o1 | 1.1 µM
37 | O=C(Nc1cccc(CN2CCCN(CC3CCCCC3)CC2)c1)c1cc2ccccc2s1 | 0.81 µM
38 | CN(C)Cc1cccc(-c2ccc(NC(=O)c3ccc4c(=O)n(Cc5ccoc5)cnc4c3)cc2)c1 | 0.77 µM
39 | O=C(Cn1c(CCc2cccc(F)c2F)cc(=O)c2cccnc21)N(CCn1ccnc1)Cc1ccc(-c2ccc(C(F)(F)F)cc2)cc1 | 0.67 µM
40 | CN1C(=O)C(=O)N(CCCCCON=C(N)N)C1=S | 0.2 µM
41 | O=C(Cc1cccs1)NC(CCCN1CCC(Oc2cccc(Cl)c2)CC1)c1ccc(Cl)c(Cl)c1 (stereo unspecified) | 0.25 µM
42 | O=C(/C=C/c1ccc(F)c(Br)c1)NCCCCCN1CCC(c2c[nH]c3ccccc23)CC1 | 0.86 µM
43 | CN(C)C(=O)CCCn1c(CNCCCNc2cc(=O)c3ccccc3[nH]2)cc2c(Cl)cc(Cl)cc21 | 1.19 µM
44 | O=C(CSc1n[nH]c(-c2ccccc2Br)n1)c1c[nH]c2ccccc12 | 0.98 µM
45 | Cc1cc(-c2cccc(CNCc3ccccc3)c2)ccc1S(=O)(=O)NCCN1CCCC1 | 0.73 µM
46 | COC(=O)c1cccc(CNCc2ccc(-c3ccc(-c4nc5ccc(C(F)(F)F)cc5[nH]4)s3)cc2)c1 | 0.16 µM
47 | Oc1cccc(-c2nc3ccc(C4=N[C@@H]5CCCC[C@H]5N4)cc3[nH]2)c1 | 0.53 µM
48 | CS(=O)(=O)c1cccc(-c2cnc(N)c3cc(-c4cccc(F)c4)ccc23)c1 | 0.86 µM

Row | SMILES | IC50
49 | CCCCCCCCc1c(C)[nH]c(C)c(Cl)c1=O | 0.23 µM
50 | COc1ccc(NC2=C(c3ccccc3)C(=O)c3ccccc32)cn1 | 0.71 µM
51 | COc1ccc2nccc(NC(=O)C3CCC(NCc4cnc(SC)c([N+](=O)[O-])c4)CC3)c2n1 (stereo unspecified) | 0.93 µM
52 | NC(=O)N1CCN(Cc2ccc(Br)cc2)CC1 | 0.62 µM
53 | Cn1c(N)c(N=O)c(=O)[nH]c1=O | 0.18 µM
54 | O=C(c1ccc(-c2cccc(-c3nc4ccc(F)cc4[nH]3)c2)cc1)N1CCCCC1CN1CCC(O)C1 (stereo unspecified) | 1.4 µM
55 | O=C(/C=C/c1ccccc1O)NC1CCC(CN2CCC(c3c[nH]c4ccccc34)CC2)CC1 (stereo unspecified) | 0.76 µM and 0.46 µM
56 | O=[N+]([O-])c1cccc(CNC2CCN(Cc3ccc4ccccc4c3)CC2)c1 | 0.76 µM
57 | COC(=O)/C=C/c1ccc(CCC(C)NCC(O)c2cccc(Cl)c2)cc1 (stereo unspecified) | 0.94 µM
58 | Cc1ccc(C(=O)NC2CCN(CCNC(=O)Nc3cc(C)nc4ccccc34)CC2)cc1 | 0.49 µM
59 | CNC(=O)NC1CCN(Cc2c(-c3cccs3)nc3ccccc3c2C(=O)N[C@@H](C)C2CCCCC2)CC1 | 0.22 µM
60 | O=C(Nc1ccc(Cl)cc1)N1CCN(C2CCCCC2)CC1 | 0.99 µM
61 | Cc1cccc2[nH]c(-c3ccc(-c4cccc(NC(=O)NCc5cccc(F)c5)c4)cc3)nc12 | 0.85 µM
62 | CC[C@H](C)CNC(=O)c1cccc(-c2cccc(CNCC3CNCCCO3)c2)n1 (stereo partly specified) | 1.08 µM
63 | FC(F)(F)COc1ccc2ccccc2c1CNCCCCCCNCc1c(OCC(F)(F)F)ccc2ccccc12 | 0.35 µM
64 | CCCCC(=O)NC(c1cccs1)c1cc(Cl)c2cccnc2c1O (stereo unspecified) | 0.38 µM
65 | COc1ccc(NC(=O)c2ccc(-c3nc(-c4ccccc4)cs3)cc2)cc1N1CCN(C)CC1 | 0.99 µM
66 | O=C(N[C@H]1CCN(Cc2ccc(OCCCN3CCCCC3)cc2)C1)c1ccc(Cl)c(Cl)c1 | 0.78 µM
67 | Cc1cccc(CNc2nc(C)cc(NCCC(=O)NCc3cccc(F)c3)n2)c1 | 0.85 µM
68 | CC(=O)Nc1ccc2[nH]cc(C3CCN(CC4CCC(NC(=O)/C=C/c5ccccc5Cl)CC4)CC3)c2n1 (stereo unspecified) | 0.36 µM
69 | COc1ccc(Cn2c(SCc3ccc(C)cc3)nc3cc(OC)c(OC)cc3c2=N)cc1Cl | 0.98 µM
70 | Cc1noc(C)c1-c1ccc(C(=C2CCCCCCC2)c2ccc(O)cc2)cc1 | 1.05 µM
71 | O=C(NC1CCC(CN2CCC(c3c[nH]c4ccccc34)CC2)CC1)c1cc(-c2cccc(Cl)c2)n(-c2ccc(Cl)cc2Cl)n1 (stereo unspecified) | 1.08 µM
